Measurements taken from patent US9695155B2, “Herbicidal substituted pyrimidinyloxy benzene compounds” (E. I. DU PONT DE NEMOURS AND COMPANY, priority 2013, dated 2017).

What was measured:
barnyardgrass [1] = test: Test A preemergence; format: in vivo, Echinochloa crus-galli; settings: for Plant response rating, Barnyardgrass: 125 g ai/ha, 0 to 100 scale where 0 is no effect and 100 is complete control; for Barnyardgrass plant response rating: 500 g ai/ha, 0 to 100 scale, 0 no effect, 100 complete control, approx. 10 days
Outline: (§1)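 Pre- and postemergence greenhouse screen. Soil: loam + sand. Spray carrier: solvent mixture, non-phytotoxic, with surfactant. Post timing at 1–2 leaves, height 2–10 cm. Readout: visual injury on a 0–100 scale roughly 10 days after application, untreated plants as reference.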

giant foxtail [2] = test: Test A preemergence; format: in vivo, Setaria faberii; settings: for Plant response rating, Foxtail, Giant: 125 g ai/ha, 0 to 100 scale where 0 is no effect and 100 is complete control; for Foxtail, Giant plant response rating: 500 g ai/ha, 0 to 100 scale, 0 no effect, 100 complete control, approx. 10 days
Outline: as §1

velvetleaf [3] = test: Test A postemergence; format: in vivo, Abutilon theophrasti
Outline: as §1

Heteranthera limosa = test: Test B flooded paddy test; format: in vivo; settings: Flood, 250 g ai/ha; 0 to 100 scale where 0 is no effect and 100 is complete control
Outline: (§2)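 Plants at 2-leaf stage; pots flooded to 3 cm above soil and compound applied directly into paddy water, depth held throughout. After 13 to 15 days in greenhouse, visual rating versus controls on 0 (no effect) to 100 (complete control) scale.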

barnyardgrass [4] = test: Test A postemergence; format: in vivo, Echinochloa crus-galli
Outline: as §1

corn [5] = test: Test A postemergence; format: in vivo, Zea mays
Outline: as §1

large (Lg) crabgrass [6] = test: Test A preemergence; format: in vivo, Digitaria sanguinalis; settings: for Plant response rating, Crabgrass, Large: 125 g ai/ha, 0 to 100 scale where 0 is no effect and 100 is complete control; for Crabgrass, Large plant response rating: 500 g ai/ha, 0 to 100 scale, 0 no effect, 100 complete control, approx. 10 days
Outline: as §1

pigweed [7] = test: Test A postemergence; format: in vivo, Amaranthus retroflexus
Outline: as §1

corn [8] = test: Test A preemergence; format: in vivo, Zea mays; settings: for Plant response rating, Corn: 125 g ai/ha, 0 to 100 scale where 0 is no effect and 100 is complete control; for Corn plant response rating: 500 g ai/ha, 0 to 100 scale, 0 no effect, 100 complete control, approx. 10 days
Outline: as §1

velvetleaf [9] = test: Test A preemergence; format: in vivo, Abutilon theophrasti; settings: for Plant response rating, Velvetleaf: 125 g ai/ha, 0 to 100 scale where 0 is no effect and 100 is complete control; for Velvetleaf plant response rating: 500 g ai/ha, 0 to 100 scale, 0 no effect, 100 complete control, approx. 10 days
Outline: as §1

morningglory [10] = test: Test A postemergence; format: in vivo, Ipomoea spp.
Outline: as §1

wheat [11] = test: Test A preemergence; format: in vivo, Triticum aestivum; settings: for Plant response rating, Wheat: 125 g ai/ha, 0 to 100 scale where 0 is no effect and 100 is complete control; for Wheat plant response rating: 500 g ai/ha, 0 to 100 scale, 0 no effect, 100 complete control, approx. 10 days
Outline: as §1

pigweed [12] = test: Test A preemergence; format: in vivo, Amaranthus retroflexus; settings: for Plant response rating, Pigweed: 125 g ai/ha, 0 to 100 scale where 0 is no effect and 100 is complete control; for Pigweed plant response rating: 500 g ai/ha, 0 to 100 scale, 0 no effect, 100 complete control, approx. 10 days
Outline: as §1

rice = test: Test B flooded paddy test; format: in vivo, Oryza sativa; settings: Flood, 250 g ai/ha; 0 to 100 scale where 0 is no effect and 100 is complete control
Outline: as §2

giant foxtail [13] = test: Test A postemergence; format: in vivo, Setaria faberii
Outline: as §1

sedge, umbrella = test: Test B flooded paddy test; format: in vivo, Cyperus difformis; settings: Flood, 250 g ai/ha; 0 to 100 scale where 0 is no effect and 100 is complete control
Outline: as §2

barnyardgrass [14] = test: Test B flooded paddy test; format: in vivo, Echinochloa crus-galli; settings: Flood, 250 g ai/ha; 0 to 100 scale where 0 is no effect and 100 is complete control
Outline: as §2

wheat [15] = test: Test A postemergence; format: in vivo, Triticum aestivum
Outline: as §1

morningglory [16] = test: Test A preemergence; format: in vivo, Ipomoea spp.; settings: for Plant response rating, Morningglory: 125 g ai/ha, 0 to 100 scale where 0 is no effect and 100 is complete control; for Morningglory plant response rating: 500 g ai/ha, 0 to 100 scale, 0 no effect, 100 complete control, approx. 10 days
Outline: as §1

large (Lg) crabgrass [17] = test: Test A postemergence; format: in vivo, Digitaria sanguinalis
Outline: as §1

[18] = 125 g ai/ha, 0 to 100 scale where 0 is no effect and 100 is complete control
[19] = 500 g ai/ha, 0 to 100 scale, 0 no effect, 100 complete control

SMILES	Plant response rating, Barnyardgrass (barnyardgrass [1])	Barnyardgrass plant response rating (barnyardgrass [1])	Plant response rating, Foxtail, Giant (giant foxtail [2])	Foxtail, Giant plant response rating (giant foxtail [2])	Plant response rating, Velvetleaf (velvetleaf [3]; [18])	Plant response rating, Velvetleaf (velvetleaf [3]; [19])	Plant response rating, Ducksalad (Heteranthera limosa)	Plant response rating, Barnyardgrass (barnyardgrass [4]; [18])	Plant response rating, Barnyardgrass (barnyardgrass [4]; [19])	Plant response rating, Corn (corn [5]; [18])	Plant response rating, Corn (corn [5]; [19])	Plant response rating, Crabgrass, Large (large (Lg) crabgrass [6])	Crabgrass, Large plant response rating (large (Lg) crabgrass [6])	Plant response rating, Pigweed (pigweed [7]; [18])	Plant response rating, Pigweed (pigweed [7]; [19])	Plant response rating, Corn (corn [8])	Corn plant response rating (corn [8])	Plant response rating, Velvetleaf (velvetleaf [9])	Velvetleaf plant response rating (velvetleaf [9])	Plant response rating, Morningglory (morningglory [10]; [18])	further results
C=C(C)c1cnn(-c2ccccc2Oc2ncc(Cl)cn2)c1 [Compound 32]	0	60	0	70	80	100	0	0	20	0	20	0	60	50	70	0	0	10	70	0	Plant response rating, Morningglory (morningglory [10]; [19]): 0; Plant response rating, Wheat (wheat [11]): 0; Wheat plant response rating (wheat [11]): 0; Plant response rating, Pigweed (pigweed [12]): 0; Pigweed plant response rating (pigweed [12]): 40; Plant response rating, Rice (rice): 15; Plant response rating, Foxtail, Giant (giant foxtail [13]; [18]): 0; Plant response rating, Foxtail, Giant (giant foxtail [13]; [19]): 30; Plant response rating, Sedge, Umbrella (sedge, umbrella): 0; Plant response rating, Barnyardgrass (barnyardgrass [14]): 0; Plant response rating, Wheat (wheat [15]; [18]): 0; Plant response rating, Wheat (wheat [15]; [19]): 0; Plant response rating, Morningglory (morningglory [16]): 0; Morningglory plant response rating (morningglory [16]): 0; Plant response rating, Crabgrass, Large (large (Lg) crabgrass [17]; [18]): 50; Plant response rating, Crabgrass, Large (large (Lg) crabgrass [17]; [19]): 50
COc1ccc(Oc2ncc(Br)cn2)c(-n2cc(Br)cn2)c1 [Compound 43]	0	10	10	20	60	100	75	0	10	0	10	10	50	30	40	0	0	30	50	30	Plant response rating, Morningglory (morningglory [10]; [19]): 50; Plant response rating, Wheat (wheat [11]): 0; Wheat plant response rating (wheat [11]): 0; Plant response rating, Pigweed (pigweed [12]): 0; Pigweed plant response rating (pigweed [12]): 20; Plant response rating, Rice (rice): 0; Plant response rating, Foxtail, Giant (giant foxtail [13]; [18]): 0; Plant response rating, Foxtail, Giant (giant foxtail [13]; [19]): 40; Plant response rating, Sedge, Umbrella (sedge, umbrella): 0; Plant response rating, Barnyardgrass (barnyardgrass [14]): 0; Plant response rating, Wheat (wheat [15]; [18]): 0; Plant response rating, Wheat (wheat [15]; [19]): 0; Plant response rating, Morningglory (morningglory [16]): 0; Morningglory plant response rating (morningglory [16]): 0; Plant response rating, Crabgrass, Large (large (Lg) crabgrass [17]; [18]): 10; Plant response rating, Crabgrass, Large (large (Lg) crabgrass [17]; [19]): 20
